Assay results as given in ChEMBL document CHEMBL1156466, “NHE1 inhibition by amiloride- and benzoylguanidine-type compounds. Inhibitor binding loci deduced from chimeras of NHE1 homologues with endogenous differences in inhibitor sensitivity” (J Biol Chem, 2007).
pIC50: −log10 of the molar value. Activity calls are given as the source filed them. The calls are words filed in the database; no cut-off is given here.

Legend:
[1] = biological target: Sodium/hydrogen exchanger (Amphiuma tridactylum) (UniProt Q9W6Q1); experiment: Inhibition of osmotic cell shrinkage-induced NHE1 activity in Amphiuma tridactylum RBC at 100 uM
AP1 [2] = experiment: (§1) Inhibition of Amphiuma tridactylum NHE1 mutant containing TM10-12 domain of Pleuronectes americanus expressed in chinese hamster AP1 cells assessed as intracellular pHi recovery by ammonium chloride prepulse protocol; assay type: cell-based
[3] = biological target: T1, Sodium/hydrogen exchanger (Pseudopleuronectes americanus) (UniProt Q804I7); experiment: Inhibition of Pleuronectes americanus wild type NHE1 expressed in chinese hamster AP1 cells assessed as intracellular pHi recovery by ammonium chloride prepulse protocol; assay type: cell-based
T1 sequence (whole entry): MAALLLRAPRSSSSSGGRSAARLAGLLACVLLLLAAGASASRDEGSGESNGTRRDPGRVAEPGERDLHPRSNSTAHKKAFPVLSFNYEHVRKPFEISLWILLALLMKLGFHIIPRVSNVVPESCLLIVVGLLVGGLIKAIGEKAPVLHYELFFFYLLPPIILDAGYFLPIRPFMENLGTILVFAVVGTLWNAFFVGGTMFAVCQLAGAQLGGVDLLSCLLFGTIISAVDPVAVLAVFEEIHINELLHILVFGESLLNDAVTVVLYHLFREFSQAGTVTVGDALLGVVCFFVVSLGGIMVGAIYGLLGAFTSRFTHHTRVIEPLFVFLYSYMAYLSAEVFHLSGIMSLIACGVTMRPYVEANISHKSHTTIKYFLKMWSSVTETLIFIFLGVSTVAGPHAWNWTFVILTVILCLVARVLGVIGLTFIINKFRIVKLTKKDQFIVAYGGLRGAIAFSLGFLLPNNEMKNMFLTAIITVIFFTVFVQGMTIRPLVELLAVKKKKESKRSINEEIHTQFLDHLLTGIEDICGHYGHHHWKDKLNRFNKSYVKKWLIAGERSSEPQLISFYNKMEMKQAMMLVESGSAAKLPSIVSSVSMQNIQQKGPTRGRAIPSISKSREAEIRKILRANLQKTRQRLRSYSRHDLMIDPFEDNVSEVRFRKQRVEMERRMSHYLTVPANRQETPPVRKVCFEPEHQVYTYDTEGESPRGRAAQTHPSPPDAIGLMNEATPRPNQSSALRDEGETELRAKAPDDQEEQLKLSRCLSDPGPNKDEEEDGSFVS

[4] = biological target: T1, Sodium/hydrogen exchanger (Pseudopleuronectes americanus); experiment: Inhibition of osmotic cell shrinkage-induced NHE1 activity in Pleuronectes americanus RBC at 20 uM
AP1 [5] = experiment: (§2) Inhibition of Pleuronectes americanus NHE1 TM4 mutant containing VFFLF sequence of human expressed in chinese hamster AP1 cells assessed as intracellular pHi recovery by ammonium chloride prepulse protocol; assay type: cell-based
AP1 [6] = experiment: Inhibition of Pleuronectes americanus NHE1 TM4 mutant containing TFFLF sequence of Amphiuma tridactylum expressed in chinese hamster AP1 cells assessed as intracellular pHi recovery by ammonium chloride prepulse protocol; assay type: cell-based
AP1 [7] = experiment: (§3) Inhibition of Pleuronectes americanus NHE1 mutant containing TM10-12 domain of Amphiuma tridactylum expressed in chinese hamster AP1 cells assessed as intracellular pHi recovery by ammonium chloride prepulse protocol; assay type: cell-based
[8] = biological target: Sodium/hydrogen exchanger 1 (Homo sapiens, UniProt P19634); experiment: Inhibition of human wild type NHE1 expressed in chinese hamster AP1 cells assessed as intracellular pHi recovery by ammonium chloride prepulse protocol; assay type: cell-based
AP1 [9] = experiment: (§4) Inhibition of Pleuronectes americanus NHE1 C-terminal mutant containing TM10 domain of Amphiuma tridactylum expressed in chinese hamster AP1 cells assessed as intracellular pHi recovery by ammonium chloride prepulse protocol; assay type: cell-based
[10] = biological target: Sodium/hydrogen exchanger (Amphiuma tridactylum) (UniProt Q9W6Q1); experiment: (§5) Inhibition of Amphiuma tridactylum wild type NHE1 expressed in chinese hamster AP1 cells assessed as intracellular pHi recovery by ammonium chloride prepulse protocol; assay type: cell-based
AP1 [11] = experiment: Inhibition of Pleuronectes americanus NHE1 C-terminal mutant with replacement of residues C-terminal to 489 position with corresponding residues of Amphiuma tridactylum expressed in chinese hamster AP1 cells assessed as intracellular pHi recovery by ammonium chloride prepulse protocol; assay type: cell-based
[12] = as §1; assay type: cell-based
AP1 [13] = experiment: Inhibition of Pleuronectes americanus NHE1 C-terminal mutant containing TM7 domain of Amphiuma tridactylum expressed in chinese hamster AP1 cells assessed as intracellular pHi recovery by ammonium chloride prepulse protocol; assay type: cell-based
[14] = as §2; assay type: cell-based
[15] = as §3; assay type: cell-based
[16] = biological target: T1, Sodium/hydrogen exchanger (Pseudopleuronectes americanus); experiment: Inhibition of osmotic cell shrinkage-induced NHE1 activity in Pleuronectes americanus RBC at 1 mM
[17] = as §4; assay type: cell-based
[18] = biological target: Sodium/hydrogen exchanger (Amphiuma tridactylum, UniProt Q9W6Q1); experiment: as §5; assay type: cell-based
[19] = biological target: Sodium/hydrogen exchanger (Amphiuma tridactylum) (UniProt Q9W6Q1); experiment: Inhibition of osmotic cell shrinkage-induced NHE1 activity in Amphiuma tridactylum RBC
[20] = biological target: T1, Sodium/hydrogen exchanger (Pseudopleuronectes americanus); experiment: Inhibition of osmotic cell shrinkage-induced NHE1 activity in Pleuronectes americanus RBC upto 100 uM

Sequence of Sodium/hydrogen exchanger 1 (P19634 whole entry, the tested form may be a part): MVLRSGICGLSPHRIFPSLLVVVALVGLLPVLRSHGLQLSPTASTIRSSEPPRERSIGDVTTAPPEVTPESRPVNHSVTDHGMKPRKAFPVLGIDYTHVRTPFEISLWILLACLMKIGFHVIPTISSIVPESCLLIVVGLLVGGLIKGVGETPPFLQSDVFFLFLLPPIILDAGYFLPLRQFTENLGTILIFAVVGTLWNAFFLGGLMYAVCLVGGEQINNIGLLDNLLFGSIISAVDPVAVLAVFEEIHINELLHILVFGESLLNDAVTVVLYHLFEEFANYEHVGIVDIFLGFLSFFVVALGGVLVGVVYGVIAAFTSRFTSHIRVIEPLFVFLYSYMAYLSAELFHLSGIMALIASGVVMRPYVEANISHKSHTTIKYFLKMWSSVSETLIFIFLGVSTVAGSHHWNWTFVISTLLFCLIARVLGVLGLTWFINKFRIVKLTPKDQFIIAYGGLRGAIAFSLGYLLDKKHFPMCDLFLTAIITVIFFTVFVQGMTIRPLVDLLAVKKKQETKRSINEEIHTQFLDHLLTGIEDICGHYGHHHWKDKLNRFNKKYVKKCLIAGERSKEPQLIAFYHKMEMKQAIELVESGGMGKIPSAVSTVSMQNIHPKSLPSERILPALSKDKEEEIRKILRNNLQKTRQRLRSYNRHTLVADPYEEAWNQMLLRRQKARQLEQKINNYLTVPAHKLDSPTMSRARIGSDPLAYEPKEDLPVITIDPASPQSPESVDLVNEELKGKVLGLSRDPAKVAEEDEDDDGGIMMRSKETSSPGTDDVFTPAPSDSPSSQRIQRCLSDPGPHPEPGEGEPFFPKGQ
Sequence of Sodium/hydrogen exchanger (Amphiuma tridactylum) (Q9W6Q1 as listed by the source): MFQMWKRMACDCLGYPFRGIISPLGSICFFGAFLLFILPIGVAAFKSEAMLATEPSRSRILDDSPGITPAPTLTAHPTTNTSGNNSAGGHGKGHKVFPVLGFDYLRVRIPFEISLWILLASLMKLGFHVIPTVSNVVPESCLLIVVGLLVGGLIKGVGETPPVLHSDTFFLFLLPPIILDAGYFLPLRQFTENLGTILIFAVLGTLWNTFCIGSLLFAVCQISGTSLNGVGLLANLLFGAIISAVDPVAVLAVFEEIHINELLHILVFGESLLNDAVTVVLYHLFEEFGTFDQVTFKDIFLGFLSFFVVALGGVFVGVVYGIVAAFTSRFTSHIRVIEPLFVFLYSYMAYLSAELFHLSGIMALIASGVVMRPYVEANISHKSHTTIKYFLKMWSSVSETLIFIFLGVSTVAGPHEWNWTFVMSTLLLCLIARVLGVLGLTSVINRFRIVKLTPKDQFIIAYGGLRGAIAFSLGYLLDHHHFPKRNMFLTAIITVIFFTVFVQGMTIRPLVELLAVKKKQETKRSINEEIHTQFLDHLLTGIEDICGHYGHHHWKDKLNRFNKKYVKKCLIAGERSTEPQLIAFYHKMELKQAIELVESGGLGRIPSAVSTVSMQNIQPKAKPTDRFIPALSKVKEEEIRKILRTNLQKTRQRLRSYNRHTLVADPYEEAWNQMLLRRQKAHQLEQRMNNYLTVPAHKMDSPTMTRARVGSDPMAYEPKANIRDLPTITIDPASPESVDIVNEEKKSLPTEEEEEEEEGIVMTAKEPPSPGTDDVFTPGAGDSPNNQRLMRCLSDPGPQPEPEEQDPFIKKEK
Sequence of Sodium/hydrogen exchanger (Q9W6Q1 whole entry): as the sequence (Q9W6Q1 as listed by the source) above

| SMILES | Activity (AP1 [2]) | Activity [3] | Activity (AP1 [5]) | Activity (AP1 [6]) | Activity (AP1 [7]) | Activity [8] | Activity (AP1 [9]) | Activity [10] | pIC50 [12] | pIC50 [14] | pIC50 [15] | pIC50 [17] | pIC50 [18] | further results |
| --- | --- | --- | --- | --- | --- | --- | --- | --- | --- | --- | --- | --- | --- | --- |
| CS(=O)(=O)c1cc(C(=O)N=C(N)N)ccc1N1CCCCC1 | Active | inactive | Active | Active | inactive | Active | inactive | inactive | – | – | – | – | – | Activity [1]: inactive; Activity [4]: inactive |
| N=C(N)NC(=O)c1nc(Cl)c(N)nc1N [AMILORIDE] | – | – | – | Active | – | – | – | – | 4.42 | 3.93 | 3.86 | 3.31 | 4.01 | Activity (AP1 [11]): inactive; Activity (AP1 [13]): Active; Activity [16]: inactive |
| CC(C)c1ccc(C(=O)N=C(N)N)cc1S(C)(=O)=O | Active | inactive | Active | Active | inactive | Active | inactive | inactive | – | – | – | – | – | – |
| CCN(c1nc(N)c(C(=O)NC(=N)N)nc1Cl)C(C)C [5-(N-ETHYL-N-ISOPROPYL)AMILORIDE] | – | – | – | – | – | – | – | – | 5.24 | 6.04 | 4.96 | 4.43 | 5.06 | Activity [19]: Active; Activity [20]: inactive; pIC50 [8]: 6.10 |
